In US10918642B2, “N-(substituted-phenyl)-sulfonamide derivatives as kinase inhibitors” (Nerviano Medical Sciences S.R.L., priority 2016, dated 2021):

Biological target: PERK recombinant enzyme (cytoplasmic domain corresponding to residues 540-1115) (Homo sapiens (Human), UniProt Q9NZJ5)
Assay: PERK enzyme assay, Method 1: ADP-Glo Kinase Assay (quantification of ADP formed)
Type: biochemical
Details: 52 microM ATP, 8 nM PERK, 300 microM eIF2alpha peptide substrate, 60 minutes at room temperature
Method: The biochemical activity of compounds was determined by incubation with PERK recombinant enzyme (cytoplasmic domain corresponding to residues 540-1115) and elF2alpha peptide substrate (Aminoacid sequence: LLSELSRRRIRSINK—SEQ ID Nr: 1; purchased from American Peptide Company, product #341923). This was followed by:
Method 1: Quantification of the ADP Tormed from the Kinase Reaction by ADP-Glo™ Kinase Assay (Promega Cat. 9102). Utra Pure ATP was Included into ADP-Glo™ Kinase Assay kit.
Compounds were 3-fold serially diluted in order to obtain from 3.333 to 0.000169 microM final concentration, then incubated for 60 minutes at room temperature in the presence of ATP, substrate and enzyme in a final volume of 15 microL of kinase buffer in 384-well plates (Perkin Elmer cat. #6007290).
The final concentration of the different reagents is 52 microM ATP, 8 nM PERK, 300 microM substrate, 50 mM Hepes pH 7.5, 3 mM MgCl2, 1 mM DTT, 3 microM Na3VO4, 0.2 mg/ml BSA, 1% DMSO.
After 60 minutes, an equal volume (15 microL) of ADP-Glo™ Reagent was added to each well to terminate the kinase reaction and deplete the remaining ATP. After 40 minutes, 30 microL of Kinase Detection Reagent is added, which simultaneously converts ADP to ATP and allows the newly synthesized ATP to be measured using a coupled luciferase/luciferin reaction. After further 40 minutes luminescence was read by ViewLux Instrument (Perkin Elmer). The data are analyzed by GraphPad Prism software which provides sigmoidal fittings of the curves for IC50 determination using a 4 parameter logistic equation: y=bottom+(top−bottom)/(1+10^((log IC50−x)*slope))
where x is the logarithm of the inhibitor concentration, y is the response; y starts at bottom and goes to top with a sigmoid shape.

Chain of PERK recombinant enzyme (cytoplasmic domain corresponding to residues 540-1115) (Q9NZJ5 540-1115): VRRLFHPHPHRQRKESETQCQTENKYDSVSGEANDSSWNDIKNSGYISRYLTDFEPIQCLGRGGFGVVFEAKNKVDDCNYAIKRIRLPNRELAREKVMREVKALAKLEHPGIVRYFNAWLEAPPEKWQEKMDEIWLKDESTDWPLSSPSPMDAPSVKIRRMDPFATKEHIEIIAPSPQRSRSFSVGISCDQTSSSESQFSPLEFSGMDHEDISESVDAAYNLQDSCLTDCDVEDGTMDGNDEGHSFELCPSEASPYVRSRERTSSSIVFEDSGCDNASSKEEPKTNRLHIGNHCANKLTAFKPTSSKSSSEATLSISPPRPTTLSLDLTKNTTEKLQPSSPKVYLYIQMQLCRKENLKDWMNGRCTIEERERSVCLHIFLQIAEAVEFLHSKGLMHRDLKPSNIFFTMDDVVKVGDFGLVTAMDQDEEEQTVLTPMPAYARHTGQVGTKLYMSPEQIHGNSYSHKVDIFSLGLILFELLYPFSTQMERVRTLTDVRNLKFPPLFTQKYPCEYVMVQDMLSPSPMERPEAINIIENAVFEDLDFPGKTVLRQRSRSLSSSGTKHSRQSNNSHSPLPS

Structure (SMILES)	pIC50	IC50 [µM]
COc1ccc(S(=O)(=O)Nc2cccc(-c3cn(C)c4ncnc(N)c34)c2F)cc1Cl [cmpd 1, N-[3-(4-Amino-7-methyl-7H-pyrrolo[2,3-d]pyrimidin-5-yl)-2-fluoro-phenyl]-3-chloro-4-methoxy-benzenesulfonamide]	A (7.3 ≤ pIC50 < 7.8)	
COc1ccc(S(=O)(=O)Nc2cccc(-c3nn(C)c4ncnc(N)c34)c2F)cc1C [cmpd 34, N-[3-(4-Amino-1-methyl-1H-pyrazolo[3,4-d]pyrimidin-3-yl)-2-fluoro-phenyl]-4-methoxy-3-methyl-benzenesulfonamide]		0.0158 to 0.0501
Cn1cc(-c2cccc(NS(=O)(=O)c3ccc(OC(F)(F)F)c(Cl)c3)c2F)c2c(N)ncnc21 [cmpd 50, N-[3-(4-Amino-7-methyl-7H-pyrrolo[2,3-d]pyrimidin-5-yl)-2-fluoro-phenyl]-3-chloro-4-trifluoromethoxy-benzenesulfonamide]	C (pIC50 < 6.8)	
COc1ccc(S(=O)(=O)Nc2cccc(-c3cn(C4CCN(C(C)C)CC4)c4ncnc(N)c34)c2F)cc1C [cmpd 40, N-{3-[4-Amino-7-(1-isopropyl-piperidin-4-yl)-7H-pyrrolo[2,3-d]pyrimidin-5-yl]-2-fluoro-phenyl}-4-methoxy-3-methyl-benzenesulfonamide]		0.0158 to 0.0501
Cn1cc(-c2cccc(NS(=O)(=O)c3cc(F)c(F)c(F)c3)c2F)c2c(N)ncnc21 [cmpd 32, N-[3-(4-Amino-7-methyl-7H-pyrrolo[2,3-d]pyrimidin-5-yl)-2-fluoro-phenyl]-3,4,5-trifluoro-benzenesulfonamide]		0.0158 to 0.0501
Cn1cc(-c2cccc(NS(=O)(=O)c3ccc(Cl)c(Cl)c3)c2F)c2c(N)ncnc21 [cmpd 25, N-[3-(4-Amino-7-methyl-7H-pyrrolo[2,3-d]pyrimidin-5-yl)-2-fluoro-phenyl]-3,4-dichloro-benzenesulfonamide]		0.0158 to 0.0501
Cn1cc(-c2cccc(NS(=O)(=O)c3ccc(Cl)s3)c2F)c2c(N)ncnc21 [cmpd 47, 5-Chloro-thiophene-2-sulfonic acid [3-(4-amino-7-methyl-7H-pyrrolo[2,3-d]pyrimidin-5-yl)-2-fluoro-phenyl]-amide]		0.0158 to 0.0501
Cn1cc(-c2cccc(NS(=O)(=O)c3cc(F)c(Br)cc3F)c2F)c2c(N)ncnc21 [cmpd 46, N-[3-(4-Amino-7-methyl-7H-pyrrolo[2,3-d]pyrimidin-5-yl)-2-fluoro-phenyl]-4-bromo-2,5-difluoro-benzenesulfonamide]	AA (7.8 ≤ pIC50)	
Cn1cc(-c2cccc(NS(=O)(=O)c3cc(F)ccc3F)c2F)c2c(N)ncnc21 [cmpd 21, N-[3-(4-Amino-7-methyl-7H-pyrrolo[2,3-d]pyrimidin-5-yl)-2-fluoro-phenyl]-2,5-difluoro-benzenesulfonamide]	C (pIC50 < 6.8)	
COc1ccc(S(=O)(=O)Nc2cccc(-c3cn(C4CCN(C)CC4)c4ncnc(N)c34)c2F)cc1C [cmpd 38, N-{3-[4-Amino-7-(1-methyl-piperidin-4-yl)-7H-pyrrolo[2,3-d]pyrimidin-5-yl]-2-fluoro-phenyl}-4-methoxy-3-methyl-benzenesulfonamide]	AA (7.8 ≤ pIC50)	
Cn1cc(-c2cccc(NS(=O)(=O)c3ccc(O)c(Cl)c3)c2F)c2c(N)ncnc21 [cmpd 67, N-[3-(4-Amino-7-methyl-7H-pyrrolo[2,3-d]pyrimidin-5-yl)-2-fluoro-phenyl]-3-chloro-4-hydroxy-benzenesulfonamide]	C (pIC50 < 6.8)	
CCn1cc(-c2cccc(NS(=O)(=O)c3cc(Cl)c(OC)cc3F)c2F)c2c(N)ncnc21 [cmpd 75, N-[3-(4-Amino-7-ethyl-7H-pyrrolo[2,3-d]pyrimidin-5-yl)-2-fluoro-phenyl]-5-chloro-2-fluoro-4-methoxy-benzenesulfonamide]		0.0158 to 0.0501
CN1CCOc2cc(S(=O)(=O)Nc3cccc(-c4cn(C)c5ncnc(N)c45)c3F)ccc21 [cmpd 18, 4-Methyl-3,4-dihydro-2H-benzo[1,4]oxazine-7-sulfonic acid [3-(4-amino-7-methyl-7H-pyrrolo[2,3-d]pyrimidin-5-yl)-2-fluoro-phenyl]-amide]		0.0501 to 0.158
COc1cc(F)c(S(=O)(=O)Nc2cccc(-c3nn(C)c4ncnc(N)c34)c2F)cc1Cl [cmpd 9, N-[3-(4-Amino-1-methyl-1H-pyrazolo[3,4-d]pyrimidin-3-yl)-2-fluoro-phenyl]-5-chloro-2-fluoro-4-methoxy-benzenesulfonamide]	AA (7.8 ≤ pIC50)	
COc1cc(F)c(S(=O)(=O)Nc2cccc(-c3cn(C(C)C)c4ncnc(N)c34)c2F)cc1Cl [cmpd 74, N-[3-(4-Amino-7-isopropyl-7H-pyrrolo[2,3-d]pyrimidin-5-yl)-2-fluoro-phenyl]-5-chloro-2-fluoro-4-methoxy-benzenesulfonamide]		0.0501 to 0.158
CCOc1ccc(S(=O)(=O)Nc2cccc(-c3cn(C)c4ncnc(N)c34)c2F)cc1C [cmpd 28, N-[3-(4-Amino-7-methyl-7H-pyrrolo[2,3-d]pyrimidin-5-yl)-2-fluoro-phenyl]-4-ethoxy-3-methyl-benzenesulfonamide]		0.0158 to 0.0501
Cn1cc(-c2cccc(NS(=O)(=O)c3ccc(C(F)(F)F)cc3)c2F)c2c(N)ncnc21 [cmpd 15, N-[3-(4-Amino-7-methyl-7H-pyrrolo[2,3-d]pyrimidin-5-yl)-2-fluoro-phenyl]-4-trifluoromethyl-benzenesulfonamide]		0.0501 to 0.158
COc1cc(F)c(S(=O)(=O)Nc2cccc(-c3cn(C4CCOCC4)c4ncnc(N)c34)c2F)cc1Cl [cmpd 76, N-{3-[4-Amino-7-(tetrahydro-pyran-4-yl)-7H-pyrrolo[2,3-d]pyrimidin-5-yl]-2-fluoro-phenyl}-5-chloro-2-fluoro-4-methoxy-benzenesulfonamide]		0.0501 to 0.158
COc1ccc(S(=O)(=O)Nc2cccc(-c3cn(C4CCN(C(C)C)CC4)c4ncnc(N)c34)c2F)cc1Cl [cmpd 6, N-{3-[4-Amino-7-(1-isopropyl-piperidin-4-yl)-7H-pyrrolo[2,3-d]pyrimidin-5-yl]-2-fluoro-phenyl}-3-chloro-4-methoxy-benzenesulfonamide]	AA (7.8 ≤ pIC50)	
Cn1cc(-c2cccc(NS(=O)(=O)c3ccc(Br)c(C(F)(F)F)c3)c2F)c2c(N)ncnc21 [cmpd 51, N-[3-(4-Amino-7-methyl-7H-pyrrolo[2,3-d]pyrimidin-5-yl)-2-fluoro-phenyl]-4-bromo-3-trifluoromethyl-benzenesulfonamide]		0.0158 to 0.0501
COc1ccc(S(=O)(=O)Nc2cccc(-c3cn(C)c4ncnc(N)c34)c2F)cc1 [cmpd 14, N-[3-(4-Amino-7-methyl-7H-pyrrolo[2,3-d]pyrimidin-5-yl)-2-fluoro-phenyl]-4-methoxy-benzenesulfonamide]		0.0501 to 0.158
COc1ccc(S(=O)(=O)Nc2cccc(-c3cn(C4CCNCC4)c4ncnc(N)c34)c2F)cc1C [cmpd 64, N-[3-(4-Amino-7-piperidin-4-yl-7H-pyrrolo[2,3-d]pyrimidin-5-yl)-2-fluoro-phenyl]-4-methoxy-3-methyl-benzenesulfonamide]		0.0158 to 0.0501
Cn1cc(-c2cccc(NS(=O)(=O)c3cc(C(F)(F)F)cc(C(F)(F)F)c3)c2F)c2c(N)ncnc21 [cmpd 49, N-[3-(4-Amino-7-methyl-7H-pyrrolo[2,3-d]pyrimidin-5-yl)-2-fluoro-phenyl]-3,5-bis-trifluoromethyl-benzenesulfonamide]		0.0501 to 0.158
Cn1cc(-c2cccc(NS(=O)(=O)c3cccc(Cl)c3)c2F)c2c(N)ncnc21 [cmpd 13, N-[3-(4-Amino-7-methyl-7H-pyrrolo[2,3-d]pyrimidin-5-yl)-2-fluoro-phenyl]-3-chloro-benzenesulfonamide]	AA (7.8 ≤ pIC50)	
Cn1cc(-c2cccc(NS(=O)(=O)c3ccc4c(c3)CCO4)c2F)c2c(N)ncnc21 [cmpd 27, 2,3-Dihydro-benzofuran-5-sulfonic acid [3-(4-amino-7-methyl-7H-pyrrolo[2,3-d]pyrimidin-5-yl)-2-fluoro-phenyl]-amide]	AA (7.8 ≤ pIC50)	
COc1ccc(S(=O)(=O)Nc2cccc(-c3cn(C4CCOCC4)c4ncnc(N)c34)c2F)cc1C [cmpd 36, N-{3-[4-Amino-7-(tetrahydro-pyran-4-yl)-7H-pyrrolo[2,3-d]pyrimidin-5-yl]-2-fluoro-phenyl}-4-methoxy-3-methyl-benzenesulfonamide]		0.0158 to 0.0501
COc1cc(F)c(S(=O)(=O)Nc2cccc(-c3cn(C4CCN(C)CC4)c4ncnc(N)c34)c2F)cc1Cl [cmpd 3, N-{3-[4-Amino-7-(1-methyl-piperidin-4-yl)-7H-pyrrolo[2,3-d]pyrimidin-5-yl]-2-fluoro-phenyl}-5-chloro-2-fluoro-4-methoxy-benzenesulfonamide]	AA (7.8 ≤ pIC50)	
Cc1cc(S(=O)(=O)Nc2cccc(-c3cn(C)c4ncnc(N)c34)c2F)ccc1Br [cmpd 52, N-[3-(4-Amino-7-methyl-7H-pyrrolo[2,3-d]pyrimidin-5-yl)-2-fluoro-phenyl]-4-bromo-3-methyl-benzenesulfonamide]	AA (7.8 ≤ pIC50)	
